Molecular target: AzoA (Enterococcus faecalis, UniProt Q831B2)
Assay: spectroscopy of purified protein, FMN to protein molar ratio
Assay type: binding
Details: co-purified flavin; two sites per homodimer

AzoA, sequence (Q831B2 whole entry): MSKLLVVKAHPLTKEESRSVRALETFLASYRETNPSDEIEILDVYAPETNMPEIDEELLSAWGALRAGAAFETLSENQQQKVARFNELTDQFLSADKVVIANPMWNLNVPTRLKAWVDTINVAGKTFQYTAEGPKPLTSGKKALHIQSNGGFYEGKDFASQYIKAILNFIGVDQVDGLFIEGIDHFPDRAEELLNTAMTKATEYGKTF

Question: Which “spectroscopy of purified protein, FMN to protein molar ratio” value does the source give for `Cc1cc2nc3c(=O)[nH]c(=O)nc-3n(C[C@H](O)[C@H](O)[C@H](O)COP(=O)(O)O)c2cc1C` [FMN] here?
Answer: Its value is “suggesting that two FMN molecules bind to an AzoA (wild-type and mutants)”.

Reference: paper PMC5704035 (Biochemistry and Biophysics Reports, 2017)
